In patent publication US20230102554A1 (GB002, INC., priority 2019, published 2023):

Key:
[1] = target: T1, Human PDGFRβ, cytoplasmic domain (GST-PDGFRβ) (Homo sapiens, UniProt P09619); experiment: Human PDGFRβ biochemical inhibition assay (off-chip Mobility Shift Assay)
T1 construct: made in house
Summary of the method: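 GST-tagged cytoplasmic domain (aa 557-1106) from baculovirus was incubated 1 h at room temperature with compound, CSKtide, ATP at Km and Mg²⁺ in HEPES buffer, pH 7.5. Phosphorylated and unphosphorylated peptide were separated by off-chip mobility shift, and the product ratio P/(P+S) gave percent inhibition.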

[2] = target: T2, Human PDGFRα, cytoplasmic domain (GST-PDGFRα) (Homo sapiens, UniProt P16234); experiment: Human PDGFRα biochemical inhibition assay (off-chip Mobility Shift Assay)
T2 construct: made in house
T2 sequence (P16234 550-1089 T674I): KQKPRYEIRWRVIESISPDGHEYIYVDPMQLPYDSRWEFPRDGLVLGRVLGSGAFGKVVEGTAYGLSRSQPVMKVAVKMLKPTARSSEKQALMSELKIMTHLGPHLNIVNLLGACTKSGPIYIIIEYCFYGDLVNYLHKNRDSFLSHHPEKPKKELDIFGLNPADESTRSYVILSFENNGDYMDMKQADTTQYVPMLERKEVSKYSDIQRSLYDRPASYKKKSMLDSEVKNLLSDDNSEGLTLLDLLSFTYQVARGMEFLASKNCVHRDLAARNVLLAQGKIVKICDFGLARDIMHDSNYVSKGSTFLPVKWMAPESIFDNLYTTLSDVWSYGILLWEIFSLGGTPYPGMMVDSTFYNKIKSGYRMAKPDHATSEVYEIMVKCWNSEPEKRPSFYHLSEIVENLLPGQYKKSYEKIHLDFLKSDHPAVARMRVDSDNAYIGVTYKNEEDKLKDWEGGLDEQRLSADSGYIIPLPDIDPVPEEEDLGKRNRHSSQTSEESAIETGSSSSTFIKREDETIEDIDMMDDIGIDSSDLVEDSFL

T1 sequence (P09619 with tags, fused parts or gaps): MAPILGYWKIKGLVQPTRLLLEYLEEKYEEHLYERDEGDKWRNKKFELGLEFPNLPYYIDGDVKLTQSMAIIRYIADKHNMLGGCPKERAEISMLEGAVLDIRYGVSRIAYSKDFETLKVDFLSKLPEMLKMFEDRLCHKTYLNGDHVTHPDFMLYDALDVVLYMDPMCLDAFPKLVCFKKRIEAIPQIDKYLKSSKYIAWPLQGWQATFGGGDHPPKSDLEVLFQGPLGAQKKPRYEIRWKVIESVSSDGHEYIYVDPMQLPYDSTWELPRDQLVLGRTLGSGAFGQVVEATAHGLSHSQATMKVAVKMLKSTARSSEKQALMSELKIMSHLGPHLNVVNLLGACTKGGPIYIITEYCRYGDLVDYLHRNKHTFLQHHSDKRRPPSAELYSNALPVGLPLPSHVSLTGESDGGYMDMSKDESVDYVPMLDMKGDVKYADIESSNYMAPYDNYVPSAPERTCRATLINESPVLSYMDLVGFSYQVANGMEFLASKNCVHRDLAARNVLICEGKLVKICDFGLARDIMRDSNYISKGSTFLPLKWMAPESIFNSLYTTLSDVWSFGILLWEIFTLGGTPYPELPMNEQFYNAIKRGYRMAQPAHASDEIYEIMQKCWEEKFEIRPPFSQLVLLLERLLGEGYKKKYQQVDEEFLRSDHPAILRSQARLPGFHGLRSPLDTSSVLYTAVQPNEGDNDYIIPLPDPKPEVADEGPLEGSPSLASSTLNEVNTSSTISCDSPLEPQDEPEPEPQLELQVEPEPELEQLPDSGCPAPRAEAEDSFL

Row | SMILES | IC50 [1] | IC50 [2]
1 | CCn1cc2ncc(N[C@@H](C)c3cc(NC(=O)c4ccc(C(F)(F)F)nc4)c(F)cc3F)nc2n1 [Compound 492, (S)-N-(5-(1-((2-ethyl-2H-pyrazolo[3,4-b]pyrazin-6-yl)amino)ethyl)-2,4-difluorophenyl)-6-(trifluoromethyl)nicotinamide] | 300 to 1000 nM | < 300 nM
2 | CCn1cc2ncc(N[C@@H](C)c3cc(NC(=O)c4cc(C)c(CN5CC[C@@H](O)C5)c(F)c4)ccc3C)nc2n1 [Compound 527, N-(3-((S)-1-((2-ethyl-2H-pvrazolo[3,4-b]pyrazin-6-yl)amino)ethyl)-4-methylphenyl)-3-fluoro-4-(((R)-3-hydroxypyrrolidin-1-yl)methyl)-5-methylbenzamide] | < 300 nM | < 300 nM
3 | CCn1cc2ncc(N[C@@H](C)c3cc(NC(=O)c4ccc(CN5CCN(C)CC5)c(C(F)(F)F)c4)ccc3F)nc2n1 [Compound 444, (S)-N-(3-(1-((2-ethyl-2H-pyrazolo[3,4-b]pyrazin-6-yl)amino)ethyl)-4-fluorophenyl)-4-((4-methylpiperazin-1-yl)methyl)-3-(trifluoromethyl) benzamide] | < 300 nM | < 300 nM
4 | Cc1cncc(C(=O)Nc2cccc([C@H](C)Nc3cnc4[nH]c(-c5cnn(C)c5)nc4c3)c2)c1 [Compound 602, (S)-5-methyl-N-(3-(1-((2-(1-methyl-1H-pyrazol-4-yl)-3H-imidazo[4,5-b]pyridin-6-yl)amino)ethyl)phenyl) nicotinamide] | < 300 nM | < 300 nM
5 | CCn1cc2ncc(N[C@@H](C)c3cccc(NC(=O)Cc4ccc(F)cc4)c3)nc2n1 [Compound 638, (S)-N-(3-(1-((2-ethyl-2H-pyrazolo[3,4-b]pyrazin-6-yl)amino)ethyl)phenyl)-2-(4-fluorophenyl)acetamide] | < 300 nM | < 300 nM
6 | CCn1cc2ncc(N[C@@H](C)c3cccc(NC(=O)c4ccc(CN5CC(F)C5)c(Cl)c4)c3)nc2n1 [Compound 495, (S)-3-chloro-N-(3-(1-((2-ethyl-2H-pyrazolo[3,4-b]pyrazin-6-yl)amino)ethyl)phenyl)-4-((3-fluoroazetidin-1-yl)methyl) benzamide] | < 300 nM | < 300 nM
7 | CCn1cc2ncc(N[C@@H](C)c3cccc(NC(=O)c4cnc5c(c4)CCC5)c3)nc2n1 [Compound 58, (S)-N-(3-(1-((2-ethyl-2H-pyrazolo[3,4-b]pyrazin-6-yl)amino)ethyl)phenyl)-6,7-dihydro-5H-cyclope3nta[6] pyridine-3-carboxamide] | < 300 nM | < 300 nM
8 | C[C@H](Nc1cnc2cnn(C)c2n1)c1cccc(NC(=O)c2ccc(C(F)F)s2)c1 [Compound 134, (S)-5-(difluoromethyl)-N-(3-(1-((1-methyl-1H-pyrazolo[3,4-b]pyrazin-6-yl)amino)ethyl)phenyl)thiophene-2-carboxamide] | < 300 nM | < 300 nM
9 | Cc1cncc(C(=O)Nc2cccc([C@H](C)Nc3cnc4cnn(C5CCC5)c4n3)c2)c1 [Compound 178, (S)-N-(3-(1-((1-cyclobutyl-1H-pyrazolo[3,4-b]pyrazin-6-yl)amino)ethyl)phenyl)-5-methylnicotinamide] | < 300 nM | < 300 nM
10 | CCn1cc2ncc(N[C@@H](C)c3cc(NC(=O)Cc4ccc(F)cn4)ccc3C)nc2n1 [Compound 656, (S)-N-(3-(1-((2-ethyl-2H-pyrazolo[3,4-b]pyrazin-6-yl)amino)ethyl)-4-methylphenyl)-2-(5-fluoropyridin-2-yl) acetamide] | < 300 nM | < 300 nM
11 | CCn1cc2ncc(N[C@@H](C)c3cc(NC(=O)Cc4cccc(C(F)(F)F)c4)ccc3F)nc2n1 [Compound 636, (S)-N-(3-(1-((2-ethyl-2H-pyrazolo[3,4-b]pyrazin-6-yl)amino)ethyl)-4-fluorophenyl)-2-(3-(trifluoromethyl)phenyl) acetamide] | < 300 nM | < 300 nM
12 | Cc1cncc(C(=O)Nc2cccc([C@H](C)Nc3cnc4cccc(Cl)c4n3)c2)c1 [Compound 37, (S)-N-(3-(1-((8-chloroquinoxalin-2-yl)amino)ethyl)phenyl)-5-methylnicotinamide] | < 300 nM | < 300 nM
